The target of test [1] is T1, μ-opioid receptor (MOR) (Rattus norvegicus, UniProt P33535).
T1 construct: Frozen whole rat brains excluding cerebellum were thawed on ice; from tissue; host or cells: whole rat brain excluding cerebellum, membrane homogenate
In words: Opioid receptor binding, μ sites ([3H]DAMGO), rat brain homogenate.

Test [2] addresses T2, human δ-receptor (OPRMD1) (Homo sapiens, UniProt P41143).
T2 construct: host or cells: HitHunter CHO-K1 cells
The test is described as follows: cell-based. It is filed as cell-based. The following applies: for Emax: CHO-K1, read-out: DOR cAMP % Efficacy; for EC50: DOR cAMP Agonist Potency ± SEM.

Test [3] has as its target T3, δ-opioid receptor (DOR) (Rattus norvegicus, UniProt P33533).
T3 construct: Frozen whole rat brains excluding cerebellum were thawed on ice; from tissue; host or cells: whole rat brain excluding cerebellum, membrane homogenate
In words: Opioid receptor binding, δ sites ([3H]DADLE), rat brain homogenate.

In test [4] the target is T4, human κ-opioid receptor (OPRK1) (Homo sapiens, UniProt P41145).
T4 construct: host or cells: HitHunter CHO-K1 cells
In words: cell-based. The settings on record: for EC50: KOR cAMP Agonist Potency ± SEM; for Emax: CHO-K1, read-out: KOR cAMP % Efficacy.

The target in test [5] is T5, κ-opioid receptor (KOR) (Rattus norvegicus, UniProt P34975).
T5 construct: Frozen whole rat brains excluding cerebellum were thawed on ice; from tissue; host or cells: whole rat brain excluding cerebellum, membrane homogenate
In words: Opioid receptor binding, κ sites ([3H]U69,593), rat brain homogenate. The settings on record: for Ki: KOR Binding (Ki), whole rat brain excluding cerebellum, [3H]U69,593, Ki ± SEM; for KOR Binding, exploratory binding assay: radioligand displacement at 100 nM.

The target of test [6] is T6, human μ-opioid receptor β-arrestin-2 (Homo sapiens, UniProt P35372).
T6 construct: enzyme fragment for EFC (β-galactosidase ProLink fragment, by own knowledge of the PathHunter system); host or cells: PathHunter CHO cells
The test is described as follows: cell-based. The settings on record: for Emax: read-out: MOR Mediated β-arrestin Recruitment (% Control, Emax DAMGO).

Test [7] addresses T7, rat MOR (Rattus norvegicus, UniProt P33535).
T7 construct: expressed in transfected cells; host or cells: C6 rat glioma cells, stably transfected; membranes
In words: Stimulation of [35S]GTPγS binding, C6 glioma cell membranes expressing MOR. Format: biochemical. The following applies: for MOR EC50, [35S]GTPγS: C6 cells expressing MOR, mean ± SEM, DNS = no stimulation; for MOR activity type in the [35S]GTPγS assay: antagonist activity assumed from high MOR affinity and lack of stimulation; for MOR % Stimulation, [35S]GTPγS: compared to standard maximal DAMGO.

For test [8], the target named is T8, human μ-opioid receptor (OPRM1) (Homo sapiens, UniProt P35372).
T8 construct: host or cells: HitHunter CHO-K1 cells
The test is described as follows: cell-based. The settings on record: for EC50: MOR cAMP Agonist Potency ± SEM; for Emax: OPRM1, read-out: MOR cAMP % Efficacy.

Test [9] has as its target T9, rat DOR (Rattus norvegicus, UniProt P33533).
T9 construct: expressed in transfected cells; host or cells: C6 rat glioma cells, stably transfected; membranes
The test is described as follows: Stimulation of [35S]GTPγS binding, C6 glioma cell membranes expressing DOR. Format: biochemical. The settings on record: for EC50: DOR EC50, [35S]GTPγS, C6 cells expressing DOR, mean ± SEM; for DOR % Stimulation, [35S]GTPγS: compared to standard maximal DPDPE.

The target of test [10] is T10, human KOR (Homo sapiens, UniProt P41145).
T10 construct: expressed in transfected cells; membranes
The test is described as follows: Stimulation of [35S]GTPγS binding, CHO cell membranes expressing KOR. It is filed as biochemical.

SMILES strings stand for the structures. Values joined by “and” are separate entries in the source; they are usually repeats but may differ in a detail not shown here. Identical values can stand only once. Some results are limits rather than exact numbers.

T9 sequence (P33533 whole entry): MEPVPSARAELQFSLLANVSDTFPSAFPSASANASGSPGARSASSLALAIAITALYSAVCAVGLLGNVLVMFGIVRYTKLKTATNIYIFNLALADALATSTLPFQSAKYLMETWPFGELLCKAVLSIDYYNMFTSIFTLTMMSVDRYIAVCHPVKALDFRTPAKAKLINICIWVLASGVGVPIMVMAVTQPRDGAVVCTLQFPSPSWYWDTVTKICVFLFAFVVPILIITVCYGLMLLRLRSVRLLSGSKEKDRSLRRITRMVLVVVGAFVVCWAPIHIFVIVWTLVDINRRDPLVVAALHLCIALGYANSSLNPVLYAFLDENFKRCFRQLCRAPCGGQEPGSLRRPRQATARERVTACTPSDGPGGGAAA
T3 sequence (P33533 whole entry): as above
T5 sequence (P34975 whole entry): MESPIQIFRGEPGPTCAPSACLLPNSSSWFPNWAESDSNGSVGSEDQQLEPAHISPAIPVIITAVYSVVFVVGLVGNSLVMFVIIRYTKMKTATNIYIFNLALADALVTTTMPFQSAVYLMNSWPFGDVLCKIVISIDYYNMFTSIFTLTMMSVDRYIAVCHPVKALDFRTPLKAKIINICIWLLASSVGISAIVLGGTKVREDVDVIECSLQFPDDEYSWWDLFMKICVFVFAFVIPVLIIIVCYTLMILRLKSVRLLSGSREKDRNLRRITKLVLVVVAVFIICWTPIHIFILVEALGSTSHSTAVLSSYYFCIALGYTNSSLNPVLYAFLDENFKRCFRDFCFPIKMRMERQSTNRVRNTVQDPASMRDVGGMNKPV
T7 sequence (P33535 whole entry): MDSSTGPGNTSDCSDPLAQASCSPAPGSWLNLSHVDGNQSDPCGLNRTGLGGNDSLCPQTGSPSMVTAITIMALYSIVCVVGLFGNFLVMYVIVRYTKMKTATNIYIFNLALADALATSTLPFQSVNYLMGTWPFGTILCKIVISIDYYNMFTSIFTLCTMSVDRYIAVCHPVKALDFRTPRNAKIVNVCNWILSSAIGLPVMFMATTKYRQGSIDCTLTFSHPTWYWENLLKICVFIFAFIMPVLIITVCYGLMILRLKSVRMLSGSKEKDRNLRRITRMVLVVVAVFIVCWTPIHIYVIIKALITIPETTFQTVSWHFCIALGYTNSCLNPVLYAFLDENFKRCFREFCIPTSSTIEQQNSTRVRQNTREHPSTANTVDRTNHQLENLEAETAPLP
T1 sequence (P33535 whole entry): as above
T2 sequence (P41143 whole entry): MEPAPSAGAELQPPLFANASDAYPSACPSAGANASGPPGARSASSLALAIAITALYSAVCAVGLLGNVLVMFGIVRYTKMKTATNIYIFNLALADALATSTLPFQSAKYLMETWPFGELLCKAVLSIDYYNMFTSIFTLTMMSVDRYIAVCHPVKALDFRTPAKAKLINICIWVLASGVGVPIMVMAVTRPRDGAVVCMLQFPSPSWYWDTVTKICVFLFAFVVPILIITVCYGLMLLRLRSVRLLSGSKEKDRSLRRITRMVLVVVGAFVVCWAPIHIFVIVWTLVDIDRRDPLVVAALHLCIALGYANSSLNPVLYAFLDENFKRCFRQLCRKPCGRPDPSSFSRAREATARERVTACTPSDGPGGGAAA
T8 sequence (P35372 whole entry): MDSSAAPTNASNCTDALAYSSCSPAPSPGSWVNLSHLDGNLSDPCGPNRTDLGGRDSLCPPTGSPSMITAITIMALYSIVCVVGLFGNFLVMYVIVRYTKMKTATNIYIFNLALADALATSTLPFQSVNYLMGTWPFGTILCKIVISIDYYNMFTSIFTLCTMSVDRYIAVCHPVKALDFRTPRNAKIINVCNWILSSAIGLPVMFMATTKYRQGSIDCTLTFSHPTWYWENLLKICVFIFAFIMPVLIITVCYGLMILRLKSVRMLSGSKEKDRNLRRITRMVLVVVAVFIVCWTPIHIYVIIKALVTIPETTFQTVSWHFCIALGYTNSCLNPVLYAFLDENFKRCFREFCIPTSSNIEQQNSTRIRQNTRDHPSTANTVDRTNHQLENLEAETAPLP
T6 sequence (P35372 whole entry, the tested form may be a part): as the sequence (P35372 whole entry) above
T4 sequence (P41145 whole entry): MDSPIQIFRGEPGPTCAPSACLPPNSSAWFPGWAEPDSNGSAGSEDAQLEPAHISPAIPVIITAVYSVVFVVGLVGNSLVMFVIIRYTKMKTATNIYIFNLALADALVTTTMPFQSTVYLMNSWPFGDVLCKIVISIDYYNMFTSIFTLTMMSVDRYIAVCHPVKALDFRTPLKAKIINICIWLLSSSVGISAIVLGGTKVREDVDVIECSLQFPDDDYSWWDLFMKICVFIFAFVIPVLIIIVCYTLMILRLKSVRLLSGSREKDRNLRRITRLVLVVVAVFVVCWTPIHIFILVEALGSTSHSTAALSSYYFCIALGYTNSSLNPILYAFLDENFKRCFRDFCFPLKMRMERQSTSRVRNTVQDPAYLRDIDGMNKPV
T10 sequence (P41145 whole entry): as above

For the compound `O=C1CCC2C3Cc4ccc(O)c5c4C2(CCN3CCc2cccc([N+](=O)[O-])c2)C1O5` [Compound 2b, (7aR,12bS)-9-Hydroxy-3-(3-nitrophenethyl)-2,3,4,4a,5,6-hexahydro-1H-4,12-methanobenzofuro[3,2-e]-0isoquinolin-7(7aH)-one], the Ki was 5.88 ± 0.38 nM in test [1], 92.5 ± 7.3 nM in [3] and 65.4 ± 7.7 nM in [5]. The Emax is 95.3% in test [2], 6% in test [6] and 102% in test [8]. The EC50 in test [2] is 46.7 nM; in [4], above 10000 nM; in test [6], 116 nM; in test [8], 5.2 nM and 5.22 nM. Moreover, in test [6], the “Bias Factor” value amounted to 3.38. In addition, the “MOR EC50, [35S]GTPγS” value in [7] is on record as “DNS”. Also, in test [7], the “MOR activity type in the [35S]GTPγS assay” value (“MOR activity type” below) was “MOR antagonist”.
Regarding `O=C(O)C(=O)O.O=C1CCC2[C@H]3Cc4ccc(O)c5c4[C@@]2(CCN3CCc2ccc(Br)cc2)[C@H]1O5` (stereo partly drawn) [Compound 2j, (4R,7aR,12bS)-3-(4-Bromophenethyl)-9-hydroxy-2,3,4,4a,5,6-hexahydro-1H-4,12-methanobenzofuro[3,2-e]-isoquinolin-7(7aH)-one oxalate], in [2], the “EC50 δ/μ ratio in the cAMP assay” value is 6.5, the Emax amounted to 96% and the EC50 turned out to be 0.97 nM. Also, in [4], the Emax is 99%; the EC50 was 20 nM and 20.1 nM. Further, in [6], the “Bias Factor” value is listed as 0.43; the midpoint of the response, the EC50, lay at 4.9 nM; the Emax is 53%. For the same compound, in test [8], it took 0.15 nM to reach a half-maximal effect (EC50) and the Emax was 103%.
On to `N#CCN1CC[C@]23c4c5ccc(O)c4O[C@H]2C(=O)CCC3C1C5` (stereo partly drawn) [Compound 1a, 2-((7aR,12bS)-9-Hydroxy-7-oxo-1,2,4,4a,5,6,7,7a-octahydro-3H-4,12-methanobenzofuro[3,2-e]isoquinolin-3-yl)acetonitrile], for which the inhibition constant (Ki) in test [1] amounted to 4.51 ± 0.27 nM; in test [3] it was 141 ± 2.8 nM; in test [5], 90.3 ± 6.6 nM. Also, the Emax in test [2] was 77%; in test [4] it was 99.3%; in test [6] it was 33.4%; in [8] it was 102%. Besides, the EC50 in test [2] came to 254 nM; in [4], 109 nM; in test [6], 424 nM; in test [7] it was 425 ± 133 nM; in test [8] it was 4.16 nM. In addition, in [6], the “Bias Factor” value worked out at 2.18. Moreover, the “MOR % Stimulation, [35S]GTPγS” value in test [7] was 47% and 47.1 ± 3.3%.
In the case of `O=C1CCC2C3Cc4ccc(O)c5c4C2(CCN3CCc2ccccc2)C1O5` (centres unmarked) [Compound S11, N-Phenethylnorhydromorphone], in [2], the “EC50 δ/μ ratio in the cAMP assay” value is 38.5 and 39; the Emax was 95.1%; it took 1.54 nM to reach a half-maximal effect (EC50). In addition, in [4], the Emax was 80.6%; the EC50 was 23 nM and 22.7 nM. For the same compound, in test [6], the “Bias Factor” value came to 0.47, the EC50 came out at 1.71 nM and the Emax is 61.9%. Besides, in test [8], a half-maximal response (EC50) required 0.04 nM and the Emax was 102%.
As for `O=C1CCC2C3Cc4ccc(O)c5c4[C@@]2(CCN3CCc2ccc([N+](=O)[O-])cc2)[C@H]1O5` (stereo partly drawn) [Compound 2a, (7aR,12bS)-9-Hydroxy-3-(4-nitrophenethyl)-2,3,4,4a,5,6-hexahydro-1H-4,12-methanobenzofuro[3,2-e]-isoquinolin-7(7aH)-one], the EC50 in test [9] was found to be 227 ± 53 nM; in [2], 0.53 nM; in test [4], 74.6 nM; in [6], 6.38 nM; in test [7] it was 1.9 ± 0.5 nM; in [8], 0.05 nM. In test [9], the “DOR % Stimulation, [35S]GTPγS” value was 64.3 ± 3.3%. Moreover, the Ki in [1] is 0.52 ± 0.01 nM; in [3], 6.07 ± 0.86 nM; in test [5], 56 ± 8.2 nM. Further, the Emax in [2] was 96%; in [4] it was 63%; in test [6], 26.2%; in [8], 102%. Also, the “Bias Factor” value in test [6] was determined as 4.51. Besides, in test [7], the “MOR activity type” value was “potent MOR agonist”. Also, in test [7], the “MOR % Stimulation, [35S]GTPγS” value is 26.6 ± 1.4%.
As to `N#CCCCN1CCC23c4c5ccc(O)c4OC2C(=O)CCC3C1C5` (centres unmarked) [Compound 1b], the Ki in test [1] was 4.25 ± 0.29 nM; in test [3], 72.2 ± 1.2 nM; in test [5], 2.71 ± 0.22 nM. This compound also returned an EC50 in [10] of 24.3 ± 5 nM. Also, the “KOR % Stimulation, [35S]GTPγS” value in test [10] (compared to standard maximal U69593) was 89.6 ± 0.9%. For the same compound, in test [7], the “MOR EC50, [35S]GTPγS” value is listed as “DNS”. In [7], the “MOR activity type” value is listed as “MOR antagonist”.
For the compound `C[C@@H](NC(=O)[C@@H](N)Cc1ccc(O)cc1)C(=O)NCC(=O)N(C)[C@@H](Cc1ccccc1)C(=O)NCCO` [DAMGO, [D-Ala^2, N-MePhe^4, Gly-ol]-enkephalin, reference compound], the Emax in test [8] was 102%.
`O=C1CCC2C3Cc4ccc(O)c5c4[C@@]2(CCN3CC2Cc3ccccc3C2)[C@H]1O5` (stereo partly drawn) [Compound 1d, (7aR,12bS)-3-((2,3-Dihydro-1H-inden-2-yl)methyl)-9-hydroxy-2,3,4,4a,5,6-hexahydro-1H-4,12-methano-benzofuro[3,2-e]isoquinolin-7(7aH)-one]: the inhibition constant (Ki) stood at 40.1 ± 5.9 nM in [1] and 844 ± 107 nM in [3]. Besides, the values for the Emax in test [2], in test [6] and in test [8] were 94.4%, 1.9% and 95.2%, respectively. For the same compound, the EC50 is 596 nM in [2], above 10000 nM in test [4], 130 nM in test [6] and 18.3 nM in [8]. In addition, the “KOR Binding, exploratory binding assay” value in [5] is “NT (NT = not tested—inactive (<50% activity at 100 nM concentration in exploratory binding assays (displaced less than half of radioligand))”. Moreover, in test [6], the “Bias Factor” value is on record as 2.53.
`O=C1CCC2C3Cc4ccc(O)c5c4[C@@]2(CCN3CC=Cc2ccccc2)[C@H]1O5` (stereo partly drawn) [Compound 1c, (7aR,12bS)-3-Cinnamyl-9-hydroxy-2,3,4,4a,5,6-hexahydro-1H-4,12-methanobenzofuro[3,2-e]isoquinolin-7(7aH)-one] returned a Ki in test [1] of 90.5 ± 11 nM. In addition, the Emax is 96.5% in test [2], 4.1% in [6] and 103% in test [8]. Moreover, the EC50 in test [2] was 1700 nM; in test [4], above 10000 nM; in [6] it was 584 nM; in test [8] it was 76.7 nM. In [3] (radioligand displacement at 100 nM), the “DOR Binding, exploratory binding assay” value is “NT (NT = not tested—inactive (<50% activity at 100 nM concentration in exploratory binding assays (displaced less than half of radioligand))”. In addition, the “KOR Binding, exploratory binding assay” value in test [5] was “NT (NT = not tested—inactive (<50% activity at 100 nM concentration in exploratory binding assays (displaced less than half of radioligand))”. Further, the “Bias Factor” value in test [6] was 1.35.
As to `O=C1CCC2C3Cc4ccc(O)c5c4[C@@]2(CCN3CCc2ccc(C(F)(F)F)cc2)[C@H]1O5` (stereo partly drawn) [Compound 2h, (7aR,12bS)-9-Hydroxy-3-(4-(trifluoromethyl)phenethyl)-2,3,4,4a,5,6-hexahydro-1H-4,12-methanobenzofuro-[3,2-e]isoquinolin-7(7aH)-one], the EC50 in test [9] is 36 nM and 35.7 nM; in test [2], 2.41 nM; in [4], 98.2 nM; in test [6] it was 10.3 nM; in test [7] it was 3.4 ± 1.2 nM; in [8] it was 0.21 nM. In addition, in test [9], the “DOR % Stimulation, [35S]GTPγS” value is given as 82.3 ± 2.3%. The Ki was 2.7 ± 0.17 nM in test [1] and 16.4 ± 0.4 nM in test [3]. The Emax in test [2] is 94.3%; in [4], 95.7%; in test [6], 62.4%; in test [8], 102%. Also, the “KOR Binding, exploratory binding assay” value in [5] is “NT (NT = not tested—inactive (<50% activity at 100 nM concentration in exploratory binding assays (displaced less than half of radioligand))”. In addition, the “Bias Factor” value in [6] came out at 0.56. Moreover, the “MOR % Stimulation, [35S]GTPγS” value in [7] turned out to be 72.2 ± 5.5%.
As to `O=C1CCC2C3Cc4ccc(O)c5c4[C@@]2(CCN3CCc2c(Cl)cccc2Cl)[C@H]1O5` (stereo partly drawn) [Compound 2k, (7aR,12bS)-3-(2,6-Dichlorophenethyl)-9-hydroxy-2,3,4,4a,5,6-hexahydro-1H-4,12-methanobenzofuro[3,2-e]isoquinolin-7(7aH)-one], the Emax is 95.8% in test [2], 74% in [4], 24.6% in test [6] and 101% in test [8]. The EC50 worked out at 21.9 nM in [2], 1880 nM in [4], 13.1 nM in [6] and 0.37 nM in test [8]. In test [6], the “Bias Factor” value was 1.04.
